These results are taken from ChEMBL document CHEMBL1201862, “PubChem BioAssay data set” (2004).

Among the test systems are OVCAR-3; MOLT-4; UO-31; PC-3; HOP-62; Hs-578T; MDA-MB-231; OVCAR-8; HCT-15; UACC-257; EKVX; HCT-116; K562; NCI-H226; DU-145; SK-MEL-28; RXF 393; TK-10; RPMI-8226; HOP-92.
Common to all, as to test: DTP human tumour cell line panel, 48 h

Structures are written as SMILES.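 How tested: cells in 96-well plates exposed to compound for 48 hours at five concentrations. GI50 is the concentration that inhibits growth by half.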 Activity calls are given as the source filed them. Rule as the data show it: active = GI50 up to about 1.1 µM and inactive = higher.

By GI50 is commonly meant the concentration giving 50% growth inhibition.

Consider `Cc1nc2c(Br)cc(Br)cc2c(=O)n1-c1ccccc1N`, for which the GI50 in the assay with OVCAR-3 was 63.5 µM (inactive); in the assay on MOLT-4 it was 21.9 µM (inactive); with UO-31 it was 20.5 µM (inactive); in the assay with PC-3, 26.8 µM (inactive); in the assay on HOP-62, 70.5 µM (inactive); in the assay on Hs-578T, 25.9 µM (inactive). The GI50 in the assay on MDA-MB-231 is 47.4 µM (inactive); with OVCAR-8, 62.5 µM (inactive); in the assay with HCT-15, 35.8 µM; with UACC-257 it was 31 µM (inactive); in the assay on EKVX, 41 µM (inactive); with HCT-116, 23.4 µM (inactive). Moreover, the GI50 in the assay on K562 is 29.8 µM (inactive); in the assay with NCI-H226 it was 30.3 µM (inactive); in the assay with DU-145 it was 56.6 µM (inactive); in the assay with SK-MEL-28, 44.4 µM (inactive).
As to `Cc1ccc2c(=O)c(-c3nnc(NC4CCCCC4)s3)c[nH]c2n1`, the GI50 in the assay on OVCAR-3 was > 100 µM (inactive); with MOLT-4, 61 µM (inactive); with UO-31, > 100 µM (inactive); with RXF 393 it was > 100 µM (inactive); with PC-3, > 100 µM (inactive); with HOP-62 it was > 100 µM (inactive). Further, the GI50 in the assay on Hs-578T is > 100 µM (inactive); in the assay on MDA-MB-231, > 100 µM (inactive); in the assay on TK-10, > 100 µM (inactive); in the assay with OVCAR-8 it was > 100 µM (inactive); in the assay on HCT-15, more than 100 µM; with UACC-257, > 100 µM (inactive). The GI50 with EKVX, in the assay on HCT-116, with K562, in the assay on NCI-H226, with RPMI-8226 and with DU-145 was > 100 µM (inactive) each time. In the assay with SK-MEL-28, the GI50 was > 100 µM (inactive).
Regarding `CC1=C2CN(C(=O)OCC(C)C)CCC2C2=C(C(=O)c3ccccc3C2=O)C1C` (centres undefined), the GI50 with MOLT-4, in the assay with RXF 393, with PC-3, in the assay with HOP-62, in the assay on MDA-MB-231 and in the assay on TK-10 was > 10 µM (inactive) in each case. The GI50 is > 10 µM (inactive) in the assay with OVCAR-8; more than 10 µM in the assay with HCT-15; > 10 µM (inactive) with UACC-257; > 10 µM (inactive) in the assay with EKVX; > 10 µM (inactive) in the assay with HOP-92; > 10 µM (inactive) with K562. Moreover, the GI50 in the assay on RPMI-8226, with DU-145 and in the assay on SK-MEL-28 was > 10 µM (inactive) each time.
As to `COc1ccc2c(c1)N=C1CSC(c3c(Cl)cccc3[N+](=O)[O-])N1C2` (centres undefined), the GI50 is 20 µM (inactive) in the assay with MOLT-4; 30.8 µM (inactive) in the assay on UO-31; 29.5 µM (inactive) in the assay with RXF 393; 40.6 µM (inactive) with PC-3; > 100 µM (inactive) with HOP-62; 45.4 µM (inactive) in the assay on Hs-578T. For the same compound, the GI50 is 33.3 µM (inactive) in the assay with MDA-MB-231; 48.4 µM (inactive) in the assay on TK-10; 46.9 µM (inactive) in the assay on OVCAR-8; 30.8 µM in the assay with HCT-15; 27 µM (inactive) in the assay with UACC-257; 40.3 µM (inactive) with EKVX. Moreover, the GI50 with HOP-92 was 40 µM (inactive); in the assay on HCT-116, 35.5 µM (inactive); with K562, 35.4 µM (inactive); in the assay on NCI-H226 it was 0.918 µM (active); in the assay on RPMI-8226, 30 µM (inactive); in the assay with SK-MEL-28 it was 20.5 µM (inactive).
Turning to `COCC1OC([P+](c2ccccc2)(c2ccccc2)c2ccccc2)CC(OC)C1OC` (centres undefined), the GI50 in the assay with OVCAR-3 was 22.7 µM (inactive); in the assay on MOLT-4, 58.1 µM (inactive); in the assay with UO-31 it was > 100 µM (inactive); in the assay on RXF 393, 27.2 µM (inactive); in the assay on PC-3, 30.5 µM (inactive); in the assay with Hs-578T, 28.2 µM (inactive). The GI50 in the assay with MDA-MB-231 was 44.3 µM (inactive); with TK-10, 55.7 µM (inactive); in the assay on OVCAR-8 it was 28.8 µM (inactive); with HCT-15, more than 100 µM; with UACC-257, 21 µM (inactive); in the assay on EKVX it was 42.6 µM (inactive). Besides, the GI50 with HCT-116 was 32.6 µM (inactive); in the assay on K562, 34.2 µM (inactive); in the assay on NCI-H226, 33.9 µM (inactive); with DU-145, 32.2 µM (inactive); with SK-MEL-28 it was 68.1 µM (inactive).
As to `CC(C)[C@H]1C(=O)O[B@-](F)(c2ccccc2)/[N+]1=C\N(C)C`, the GI50 in the assay with OVCAR-3, in the assay on MOLT-4, in the assay on UO-31, in the assay on PC-3, in the assay on HOP-62 and with MDA-MB-231 was > 100 µM (inactive) throughout. Moreover, the GI50 with TK-10 is > 100 µM (inactive); in the assay on OVCAR-8 it was > 100 µM (inactive); in the assay on HCT-15, more than 100 µM; in the assay with UACC-257 it was > 100 µM (inactive); with EKVX, > 100 µM (inactive); with HOP-92, > 100 µM (inactive). The GI50 with HCT-116, in the assay with K562, with NCI-H226, in the assay with RPMI-8226, with DU-145 and in the assay with SK-MEL-28 was > 100 µM (inactive) throughout.
`FC(F)(F)c1ccc2nc(Sc3ccccn3)cnc2c1`: the GI50 with MOLT-4 is 36.8 µM (inactive); in the assay on UO-31, 22.7 µM (inactive); in the assay on RXF 393 it was 19.1 µM (inactive); with HOP-62, 35.3 µM (inactive); in the assay with Hs-578T it was 54.7 µM (inactive); in the assay with MDA-MB-231 it was 38.4 µM (inactive). Also, the GI50 was 31 µM (inactive) in the assay with TK-10; 38.8 µM (inactive) in the assay with OVCAR-8; 50.5 µM with HCT-15; 79.3 µM (inactive) in the assay on UACC-257; 49.2 µM (inactive) in the assay on EKVX; 89.1 µM (inactive) in the assay with HOP-92. In addition, the GI50 in the assay on HCT-116 is 44.3 µM (inactive); in the assay on K562 it was 51.4 µM (inactive); in the assay on NCI-H226 it was 26.2 µM (inactive); with DU-145, 46.6 µM (inactive); in the assay with SK-MEL-28, > 100 µM (inactive).
Turning to `O=C1CCC2(CCO1)OCCO2`, the GI50 with OVCAR-3, in the assay with MOLT-4, in the assay on UO-31, in the assay with RXF 393, with PC-3 and in the assay on HOP-62 was > 100 µM (inactive) throughout. In addition, the GI50 in the assay on Hs-578T was > 100 µM (inactive); in the assay with MDA-MB-231, > 100 µM (inactive); in the assay on TK-10, > 100 µM (inactive); in the assay on OVCAR-8, > 100 µM (inactive); with HCT-15, more than 100 µM; in the assay on UACC-257 it was > 100 µM (inactive). For the same compound, the GI50 with EKVX, with HCT-116, with K562, in the assay with NCI-H226, with DU-145 and with SK-MEL-28 was > 100 µM (inactive) throughout.
Turning to `N#CC(C/C=C/c1ccccc1)NNC(=O)c1c(Cl)c(Cl)c(Cl)c(Cl)c1-c1nc2cc(C(=O)c3ccccc3)ccc2[nH]1` (centres undefined), the GI50 in the assay with OVCAR-3 is 7.53 µM (inactive); in the assay on MOLT-4 it was 13.4 µM (inactive); in the assay with UO-31, 21.5 µM (inactive); in the assay with RXF 393, 9.53 µM (inactive); with PC-3 it was 10.9 µM (inactive); in the assay on HOP-62, 6.14 µM (inactive). Moreover, the GI50 in the assay with MDA-MB-231 was 16.1 µM (inactive); in the assay on TK-10, 22.8 µM (inactive); with OVCAR-8, 16.7 µM (inactive); in the assay with HCT-15 it was 11.6 µM; in the assay on UACC-257 it was 25.5 µM (inactive); in the assay on EKVX, 15.1 µM (inactive). Further, the GI50 was 16.2 µM (inactive) in the assay on HOP-92; 20 µM (inactive) in the assay with HCT-116; 6.34 µM (inactive) in the assay with K562; 17.7 µM (inactive) in the assay with NCI-H226; 16.3 µM (inactive) in the assay on RPMI-8226; 18.5 µM (inactive) in the assay on DU-145. For the same compound, in the assay on SK-MEL-28, the GI50 was 16.3 µM (inactive).
Take `COc1cc(C2C(Cl)C(=O)N2c2ccc(Br)cc2)cc(I)c1O` (centres undefined): the GI50 was 45.3 µM (inactive) in the assay on OVCAR-3; 27.5 µM (inactive) in the assay with MOLT-4; 31.1 µM (inactive) with UO-31; > 100 µM (inactive) with PC-3; 37.4 µM (inactive) with HOP-62; 59.6 µM (inactive) in the assay on Hs-578T. Also, the GI50 is 18.9 µM (inactive) in the assay on MDA-MB-231; 90.8 µM (inactive) with TK-10; > 100 µM (inactive) in the assay on OVCAR-8; 23.8 µM in the assay on HCT-15; 57 µM (inactive) with UACC-257; 20.7 µM (inactive) in the assay on EKVX. For the same compound, the GI50 in the assay on HCT-116 is 40.3 µM (inactive); in the assay on K562, 7.21 µM (inactive); with RPMI-8226, 33.1 µM (inactive); in the assay with DU-145, > 100 µM (inactive).
`O=C(Nc1ccc(Cl)cc1)c1cc2c(cc1Cl)Sc1nccn1S2(=O)=O`: the GI50 was 46.5 µM (inactive) with OVCAR-3; 27.9 µM (inactive) in the assay with MOLT-4; 27.5 µM (inactive) with RXF 393; 85.3 µM (inactive) in the assay on PC-3; 33.7 µM (inactive) with HOP-62; 33.8 µM (inactive) in the assay with Hs-578T. The GI50 with MDA-MB-231 is 43.7 µM (inactive); in the assay on OVCAR-8, 51.3 µM (inactive); in the assay on HCT-15, 35.7 µM; in the assay with EKVX it was 69 µM (inactive); with HCT-116, 34.6 µM (inactive); in the assay with K562 it was 14.1 µM (inactive). The values for the GI50 in the assay with NCI-H226, with DU-145 and in the assay with SK-MEL-28 were 51.3 µM (inactive), > 100 µM (inactive) and 40.5 µM (inactive), respectively.
As for `CC(=O)N1N(c2ccc([N+](=O)[O-])cc2)C(=O)C1(C)C`, the GI50 in the assay on OVCAR-3 is 19.3 µM (inactive); in the assay with MOLT-4, 15.5 µM (inactive); in the assay on UO-31, 17.1 µM (inactive); in the assay with RXF 393, 18 µM (inactive); in the assay on PC-3, 15.7 µM (inactive); in the assay on HOP-62, 19.3 µM (inactive). Also, the GI50 in the assay with Hs-578T was 33.5 µM (inactive); in the assay on MDA-MB-231 it was 20.1 µM (inactive); with TK-10, 17.1 µM (inactive); in the assay with OVCAR-8, 23.2 µM (inactive); in the assay with HCT-15, 15.7 µM; in the assay on EKVX it was 17.3 µM (inactive). Besides, the GI50 was 17 µM (inactive) in the assay on K562, 21.1 µM (inactive) in the assay with NCI-H226, 35.6 µM (inactive) in the assay with DU-145 and 17.9 µM (inactive) in the assay on SK-MEL-28.
